Source: ChEMBL document CHEMBL1134161, “Stereospecific synthesis of (2S)-2-methyl-3-(2',6'-dimethyl-4'-hydroxyphenyl)-propionic acid (Mdp) and its incorporation into an opioid peptide” (Bioorg Med Chem Lett, 2001)
Peptide text beside a SMILES is read from it. * marks the point of attachment. X1 = Cc1cc(O)cc(C)c1C[C@H](C)C(=O)*

Columns and labels:
Mus musculus [1] = organism: Mus musculus; experiment: In vitro inhibition of electrically evoked contractions of mouse vas deferens(MVD); type: functional, organism-based
Cavia porcellus [2] = organism: Cavia porcellus; experiment: In vitro inhibition of electrically evoked contractions of guinea pig ileum(GPI); type: functional
[3] = target: Kappa-type opioid receptor (Homo sapiens, UniProt P41145); experiment: Tested for binding affinity towards Opioid receptor kappa 1
Mus musculus [4] = organism: Mus musculus; experiment: Tested for antagonistic activity against Delta agonist DPDPE in the MVD assay; type: functional
Cavia porcellus [5] = organism: Cavia porcellus; experiment: Tested for antagonistic activity against Mu agonist TAPP in the GPI assay; type: functional

Kappa-type opioid receptor, sequence (P41145 whole entry): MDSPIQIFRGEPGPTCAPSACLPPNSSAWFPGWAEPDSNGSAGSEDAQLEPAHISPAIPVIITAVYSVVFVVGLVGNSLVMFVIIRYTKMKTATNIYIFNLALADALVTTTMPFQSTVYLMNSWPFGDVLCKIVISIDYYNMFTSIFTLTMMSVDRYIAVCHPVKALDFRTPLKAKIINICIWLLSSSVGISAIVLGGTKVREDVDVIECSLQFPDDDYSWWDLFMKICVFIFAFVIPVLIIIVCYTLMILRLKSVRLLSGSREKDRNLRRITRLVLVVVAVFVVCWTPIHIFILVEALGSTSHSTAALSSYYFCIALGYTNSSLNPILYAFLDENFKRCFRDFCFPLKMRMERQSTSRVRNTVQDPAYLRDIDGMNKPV

SMILES | IC50 (Mus musculus [1]) [nM] | IC50 (Cavia porcellus [2]) [nM] | Ki [3] [nM] | Ke (Mus musculus [4]) [nM] | Ke (Cavia porcellus [5]) [nM]
Cc1cc(O)cc(C)c1C[C@H](N)C(=O)N[C@@H](C)C(=O)NCC(=O)N[C@@H](Cc1ccccc1)C(=O)N[C@@H](CC(C)C)C(N)=O | 0.212 | 0.586 | > 10000 | – | –
Cc1cc(O)cc(C)c1C[C@H](C)C(=O)N[C@@H](C)C(=O)NCC(=O)N[C@@H](Cc1ccccc1)C(=O)N[C@@H](CC(C)C)C(N)=O (X1-AGFL-NH2) | – | – | > 10000 | 28.1 | 154
